Reference: ChEMBL document CHEMBL1149669, “Sulfonamide derivatives as new potent and selective CB2 cannabinoid receptor agonists” (Bioorg Med Chem Lett, 2007)
pEC50, pIC50: −log10 of the molar value.

Key:
Cannabinoid receptor 2 [1] = molecular target: T1, Cannabinoid receptor 2 (Homo sapiens, UniProt P34972); assay: Displacement of [3H]CP-55940 from human CB2 receptor expressed in CHO cells; assay type: cell-based
Cannabinoid receptor 1 = Cannabinoid receptor 1 (Homo sapiens, UniProt P21554); assay: Displacement of [3H]CP-55940 from human CB1 receptor expressed in CHO cells; assay type: cell-based
Chain of Cannabinoid receptor 1 (P21554 whole entry): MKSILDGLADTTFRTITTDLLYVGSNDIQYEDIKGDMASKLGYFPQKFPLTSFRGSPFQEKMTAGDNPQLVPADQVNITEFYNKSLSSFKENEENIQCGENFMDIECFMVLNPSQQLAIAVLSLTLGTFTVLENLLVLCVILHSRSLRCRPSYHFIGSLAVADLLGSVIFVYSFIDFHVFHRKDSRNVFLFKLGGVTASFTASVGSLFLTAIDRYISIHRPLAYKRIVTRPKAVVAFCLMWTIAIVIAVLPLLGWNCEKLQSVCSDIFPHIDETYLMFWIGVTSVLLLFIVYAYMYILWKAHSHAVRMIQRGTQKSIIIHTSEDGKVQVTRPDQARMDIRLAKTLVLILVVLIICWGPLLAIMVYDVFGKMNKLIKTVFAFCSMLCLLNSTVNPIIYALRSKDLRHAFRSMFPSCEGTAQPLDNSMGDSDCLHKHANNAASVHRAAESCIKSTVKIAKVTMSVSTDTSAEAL

Cannabinoid receptor 2 [2] = molecular target: T1, Cannabinoid receptor 2; assay: Agonist activity at human CB2 receptor expressed in CHO cells by [35S]GTP-gamma-S binding assay; assay type: functional, cell-based
Cannabinoid receptor 2 [3] = molecular target: T1, Cannabinoid receptor 2; assay: Agonist activity at human CB2 receptor expressed in CHO cells by [35S]GTP-gamma-S binding assay relative to CP-55940; assay type: functional, cell-based
Homo sapiens = species: Homo sapiens; assay: Selectivity for human CB2 receptor over human CB1 receptor

T1 sequence (P34972 whole entry): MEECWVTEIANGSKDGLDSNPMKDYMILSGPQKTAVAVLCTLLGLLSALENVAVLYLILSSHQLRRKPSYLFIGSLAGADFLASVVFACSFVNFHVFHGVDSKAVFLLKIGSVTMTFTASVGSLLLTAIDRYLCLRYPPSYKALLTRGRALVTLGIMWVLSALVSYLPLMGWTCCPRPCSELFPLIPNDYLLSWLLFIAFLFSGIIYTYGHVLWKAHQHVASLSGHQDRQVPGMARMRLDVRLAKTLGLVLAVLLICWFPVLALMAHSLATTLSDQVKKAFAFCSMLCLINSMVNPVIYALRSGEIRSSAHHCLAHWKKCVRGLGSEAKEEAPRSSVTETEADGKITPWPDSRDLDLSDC

| Compound | pIC50 (Cannabinoid receptor 2 [1]) | pIC50 (Cannabinoid receptor 1) | pEC50 (Cannabinoid receptor 2 [2]) | Emax (Cannabinoid receptor 2 [3]) [%] | Ratio IC50 (Homo sapiens) |
| --- | --- | --- | --- | --- | --- |
| C#CCn1c(C)c(C(C)(C)C)s/c1=N\S(=O)(=O)c1ccccc1 | 6.68 | – | – | – | – |
| CC(C)=CCn1c(C)c(C(C)(C)C)s/c1=N\S(=O)(=O)c1ccccc1 | 6.77 | – | – | – | – |
| C=CCn1c(C)c(C(C)(C)C)s/c1=N\S(=O)(=O)c1ccccc1 | 7.12 | – | – | – | – |
| Cc1c(C(C)(C)C)s/c(=N\S(=O)(=O)c2cccc3ccccc23)n1CC1CC1 | 7.80 | 5.77 | 8.14 | 100 | 106 |
| Cc1c(C(C)(C)C)s/c(=N\S(=O)(=O)c2ccc3ccccc3c2)n1CC1CC1 | 6.31 | – | – | – | – |
| Cc1c(C(C)(C)C)s/c(=N\S(=O)(=O)c2ccccc2)n1CC1CC1 | 7.19 | – | – | – | – |
| Cc1c(C(C)(C)C)s/c(=N\S(=O)(=O)c2ccccc2)n1C | 6.47 | < 4.30 | 6.96 | 110 | – |
